Measurements reported in US12275850B2, “Organic-inorganic hybrid material comprising a metal and lignin, processes for preparing the same and uses thereof” (UPM-KYMMENE CORPORATION, priority 2018, dated 2025).

What was measured:
Test in all cases: MIC, agar dilution / broth microdilution
Format in all cases: cell-based
Conditions in all cases: mainly agar dilution; g/l of material; for Copper MIC refers to concentration of copper
Escherichia coli = test system: Escherichia coli
Description: (§1) The antimicrobial activity of organic-inorganic hybrid materials of the present invention was evaluated through in vitro test of antimicrobial susceptibility with broth microdilution method and agar dilution method (CLSI protocol—Clinical and Laboratory Standards Institute). […] Agar dilution assay was used: the organic-inorganic hybrid materials were incorporated at different concentrations into the agar medium (specific for each microorganism) and after solidification of the medium, the inoculum (10^4 CFU/ml for the fungi and […] for the bacteria) was applied to the agar surface. Broth microdilution assay: the organic-inorganic hybrid materials were diluted into specific liquid media in the presence of a well-defined microbial suspension (10^4 CFU/ml for the fungi and […] for the bacteria). In the broth microdilution assay, the organic-inorganic hybrid materials were diluted into specific liquid media, but they resulted insoluble with the formation of precipitates on the bottom of the wells, consequently the MIC were mainly determinate with agar dilution assay. Two controls were prepared for the tests: a positive control of activity through use of Miconazole (against fungi) and Ceftriaxone (against bacteria). All the tests have been carried out in triplicate, giving very similar inhibition results. In parenthesis, the concentration (g/l) of copper relative to the corresponding copper-lignin derivative. For copper sulphate pentahydrate (copper) and copper hydroxide (copper 2) the MIC refer to the concentration of copper (g/l): […]

Monilia laxa = test system: Monilia laxa
Description: as §1

Candida albicans = test system: Candida albicans
Description: as §1

Staphylococcus aureus = test system: Staphylococcus aureus
Description: as §1

Fusarium solani = test system: Fusarium solani
Description: as §1

Septoria tritici = test system: Septoria tritici
Description: as §1

Pseudomonas aeruginosa = test system: Pseudomonas aeruginosa
Description: as §1

Botritis cinerea = test system: Botritis cinerea
Description: as §1

[1] = test system: Pseudomonas syringae pv. actinidiae
Description: as §1

Alternaria solani = test system: Alternaria solani
Description: as §1

Erwinia amylovora = test system: Erwinia amylovora
Description: as §1

Rizoctonia solani = test system: Rizoctonia solani
Description: as §1

Xanthomonas campestris = test system: Xanthomonas campestris
Description: as §1

Campylobacter jejuni = test system: Campylobacter jejuni
Description: as §1

Salmonella enteriditis = test system: Salmonella enteriditis
Description: as §1

[2] = test system: Xanthomonas arboricola pv. pruni
Description: as §1

- MIC (g/l) E. coli (Escherichia coli): 0.32 g/L
- MIC (g/l) M. laxa (Monilia laxa): 0.65 g/L
- MIC (g/l) C. albicans (Candida albicans): 1.30 g/L
- MIC (g/l) S. aureus (Staphylococcus aureus): 0.32 g/L
- MIC (g/l) F. solani (Fusarium solani): 10.4 g/L
- MIC (g/l) S. tritici (Septoria tritici): 0.65 g/L
- MIC (g/l) P. aeruginosa (Pseudomonas aeruginosa): 1.30 g/L
- MIC (g/l) B. cinerea (Botritis cinerea): 5.2 g/L
- MIC (g/l) P. syringae [1]: 0.32 g/L
- MIC (g/l) A. solani (Alternaria solani): 5.2 g/L
- MIC (g/l) E. amylovora (Erwinia amylovora): 0.65 g/L
- MIC (g/l) R. solani (Rizoctonia solani): 0.32 g/L
- MIC (g/l) X. campestris (Xanthomonas campestris): 0.32 g/L
- MIC (g/l) C. jejuni (Campylobacter jejuni): <0.16 g/L
- MIC (g/l) S. enteridis (Salmonella enteriditis): 0.65 g/L
- MIC (g/l) X. arboricola [2]: <0.16 g/L
SMILES: [Cu+2].[OH-].[OH-] [Copper, Copper hydroxide]
